For the experiment, the target named is T1, hTLR7 (Homo sapiens, UniProt Q9NYK1).
T1 construct: host or cells: HEK-Blue hTLR7 (HEK293-derived reporter cell line)
T1 sequence (Q9NYK1 27-1049): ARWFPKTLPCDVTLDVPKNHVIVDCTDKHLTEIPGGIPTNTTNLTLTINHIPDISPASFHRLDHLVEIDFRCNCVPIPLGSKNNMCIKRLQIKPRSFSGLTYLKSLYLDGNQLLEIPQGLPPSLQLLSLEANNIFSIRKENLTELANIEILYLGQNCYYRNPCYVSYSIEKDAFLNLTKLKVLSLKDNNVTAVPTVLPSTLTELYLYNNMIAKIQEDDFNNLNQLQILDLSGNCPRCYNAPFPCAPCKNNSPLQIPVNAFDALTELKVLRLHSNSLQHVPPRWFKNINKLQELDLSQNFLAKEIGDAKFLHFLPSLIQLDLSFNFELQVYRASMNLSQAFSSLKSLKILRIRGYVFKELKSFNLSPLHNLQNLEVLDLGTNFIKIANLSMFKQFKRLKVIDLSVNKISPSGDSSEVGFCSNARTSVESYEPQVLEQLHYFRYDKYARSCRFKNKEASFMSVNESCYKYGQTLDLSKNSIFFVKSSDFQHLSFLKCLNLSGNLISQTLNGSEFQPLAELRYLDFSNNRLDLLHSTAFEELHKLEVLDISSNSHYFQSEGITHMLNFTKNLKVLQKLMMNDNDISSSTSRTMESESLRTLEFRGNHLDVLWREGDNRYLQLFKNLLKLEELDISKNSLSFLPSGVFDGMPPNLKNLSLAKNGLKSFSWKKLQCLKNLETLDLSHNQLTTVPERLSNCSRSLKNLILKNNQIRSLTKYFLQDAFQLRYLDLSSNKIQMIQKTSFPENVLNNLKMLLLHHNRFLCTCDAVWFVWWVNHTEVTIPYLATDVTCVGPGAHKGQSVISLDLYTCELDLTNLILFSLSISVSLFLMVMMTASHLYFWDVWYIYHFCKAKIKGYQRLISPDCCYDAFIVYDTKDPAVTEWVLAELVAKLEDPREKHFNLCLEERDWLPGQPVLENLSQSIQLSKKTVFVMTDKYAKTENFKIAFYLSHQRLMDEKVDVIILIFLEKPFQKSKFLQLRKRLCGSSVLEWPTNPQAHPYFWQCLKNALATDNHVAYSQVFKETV
Put plainly: HEK-Blue hTLR7 reporter assay (NF-kB-induced SEAP, Quanti-Blue, OD 655 nm). The class given is cell-based. Conditions: for TLR7 activity / potency stated in words: FIGS. 6-9. Here is the method:
HEK-Blue™ hTLR7 cells were incubated in HEK-Blue™ Detection medium and stimulated with increasing concentrations of TLR7 or TLR8 or TLR7/8 agonists. […] The EC50 was determined from dose-response curve using Prism Software.

The mark [1] stands for this setting: Table 14, FIG. 8, (DL) = drug linker, read-out: TLR7 EC50.
[2] abbreviates: text to FIG. 5B and FIG. 8, read-out: EC50 values (TLR7).

The text below walks through data of US12569566B2, “Compositions containing, methods and uses of antibody-TLR agonist conjugates” (Ambrx, Inc., priority 2019, dated 2026).

Molecules are shown by their SMILES. Read-outs that look alike come from different tables or passages of the source.

`CCOCc1nc2c(N)nc3ccccc3c2n1CCCCNC(=O)c1ccc(N)c(OC)c1` [AXC-807]: the concentration for a half-maximal effect (EC50) (Table 10, FIG. 5A, 24 h, read-out: TLR7 EC50) worked out at 413 nM.
For the compound `CCCCNc1nc(N)c2[nH]c(=O)n(Cc3ccc(NCCN(C)CCNC(=O)CON)nc3)c2n1` [AXC-868, N-(2-((2-(5-((6-amino-2-(butylamino)-8-oxo-7H-purin-9(8H)-yl)methyl)pyridin-2-ylamino)ethyl)(methyl)amino)ethyl)-2-(aminooxy)acetamide], the EC50 (Table 12, FIG. 6, TLR7 agonists attached to a linker, read-out: TLR Agonist Payload + Linkers EC50) is greater than 5000 nM.
On to `CCCCOc1nc(N)c2[nH]c(=O)n(Cc3ccc(CN4CCC(CCNC(=O)CON)CC4)cc3)c2n1` [AXC-879, N-(2-(1-(4-((6-amino-2-butoxy-8-oxo-7H-purin-9(8H)-yl)methyl)benzyl)piperidin-4-yl)ethyl)-2-(aminooxy)acetamide], for which the “TLR7 activity / potency stated in words” value is listed as “highest potency”.
Still for that read-out and setting: in the case of `CCCCOc1nc(N)c2[nH]c(=O)n(Cc3ccc(CN4CCC(CCNC(=O)c5ccc(N)c(OC)c5)CC4)cc3)c2n1` [AXC-895, 4-amino-N-(2-(1-(4-((6-amino-2-butoxy-8-oxo-7H-purin-9(8H)-yl)methyl)benzyl)piperidin-4-yl)ethyl)-3-methoxybenzamide] it was “highest potency”; in that of `CCCCOc1nc(N)c2[nH]c(=O)n(Cc3ccc(CN4CCC(C5CCN(C(=O)CON)CC5)CC4)cc3)c2n1` [AXC-901, 6-amino-9-(4-((1′-(2-(aminooxy)acetyl)-4,4′-bipiperidin-1-yl)methyl)benzyl)-2-butoxy-7H-purin-8(9H)-one], “highest potency”.
For `CCCCOc1nc(N)c2[nH]c(=O)n(Cc3ccc(CN4CCC(CCNC(=O)c5cccc(N)c5)CC4)cc3)c2n1` [AXC-903, 3-amino-N-(2-(1-(4-((6-amino-2-butoxy-8-oxo-7,8-dihydro-9H-purin-9-yl)methyl)benzyl)piperidin-4-yl)ethyl)benzamide], the EC50 was 4.3 nM under setting [1] and less than 10 nM under setting [2].
In the case of `CCCCOc1nc(N)c2[nH]c(=O)n(Cc3ccc(CN4CCC(CCNC(=O)c5ccc(CCN)cc5)CC4)cc3)c2n1` [AXC-904, N-(2-(1-(4-((6-amino-2-butoxy-8-oxo-7,8-dihydro-9H-purin-9-yl)methyl)benzyl)piperidin-4-yl)ethyl)-4-(2-aminoethyl)benzamide], the EC50 was 8.1 nM under setting [1] and less than 10 nM under setting [2].
On to `CCCCOc1nc(N)c2[nH]c(=O)n(Cc3ccc(CN4CCC(CCNC(=O)c5ccc(N)cc5)CC4)cc3)c2n1` [AXC-905, 4-amino-N-(2-(1-(4-((6-amino-2-butoxy-8-oxo-7,8-dihydro-9H-purin-9-yl)methyl)benzyl)piperidin-4-yl)ethyl)benzamide], for which the EC50 under setting [1] worked out at 2.6 nM.

Usually EC50 stands for the midpoint of the concentration-response curve.
